From patent US5183828A, “Polyhydroxybenzoic acid derivatives” (priority 1990, dated 1993)
“And” between values parts separate entries of the source, which are not always exact repeats. Equal entries are not always repeated. Structures can show the parent of a compound that is named as a salt.

Key:
[1] = system: L-1210 Leukemia; assay: activity vs L-1210 leukemia (T/C % survival time), Table 3; assay type: in vivo, mice; conditions: >130 significant
Source text: 3,4-Dihydroxybenzamidoxime and 3,4,5-trihydroxybenzamidoxime were subjected to a further series of tests against various transplanted tumors in mice according to the following protocols:
For L-1210 lymphoid leukemia, 20 grams CDF1 or BDF1 mice […] ip with 10^5 leukemia cells. The drug was given one day after tumor inoculation continued for an additional eight days. The mean survival time for the treated animal was compared to that of the control group. In the table, column 1 gives the name of the compound, column 2 the dose levels, and column 3 treated over control percent survival time. (In other words, a figure of 175 indicates a 75% increase in survival time.)

[2] = system: Colon 38; assay: activity vs colon 38 (T/C % median tumor weight), Table 5; assay type: in vivo
Protocol: A compound of this invention was also tested on the solid colon tumor model, colon 38. The tumor was implanted subcutaneously and the drug injected intraperitoneally twice a day on day two (seven hours apart) and twice on day nine. The median tumor weight estimated from tumor diameter is the parameter of tumor inhibition and is measured on day 20. The median tumor weight of treated versus control=T/C percent.

[3] = scavenging of generated tyrosine free radical by pulse radiolysis
Protocol: Additional free radical scavenging potential of a compound of this invention was measured on a generated tyrosine free radical. There is evidence that a tyrosine free radical is formed as part of the mammalian ribonucleotide reductase enzyme during the conversion of ribonucleotides to deoxyribonucleotides--see L. Akerblom, et al. Proc. Natl. Acad. Sci. USA, 78, 2159-2163 (1981). The method for the generation of the tyrosine free radical and its destruction by a compound of this invention was accomplished by pulse radiolysis experiments at Brunel University, […] England on the Brunel 4 MeV linear accelerator using a 1.5 cm optical cell and a 200 ns pulse delivering a dose of approximately 1 krad as measured by thiocyanate dosimetry. All solutions were purged with nitrogen using a syringe-deaerating technique prior to use. The detailed description of the methodology can be found in R. L. Willson, Chemistry and Industry, 183-193 (1977).
For the generation of the tyrosine radical, sodium azide was utilized as an intermediate between the pulse radiolysis generated free electron and tyrosine. […] See also I. K. Larsen et al., Eur. J. Biochem, 125, 75-81 (1982).

[4] = system: SRS-A biosynthesis; assay: effect of drug on SRS-A biosynthesis; assay type: in vivo; conditions: 10 mg/kg, i.v.; ovalbumin-sensitized guinea-pigs
Protocol: Compounds according to this invention were also able to affect SRS-A biosynthesis, also in vivo. In this determination, male Hartley guinea-pigs (200-300 g) were sensitized with a single intraperitoneal injection of ovalbumin (10 mg) in 1 ml of 0.9% w/v NaCl solution (saline). The animals were used for study on days 28-45, following the ovalbumin injection. Guinea-pigs this sensitized were anaesthetized with an intraperitoneal injection of urethane (2 g/kg), and the carotid artery and jugular vein cannulated for measurement of arterial blood pressure and to facilitate intravenous drug administration. Animals were ventilated with a Harvard small animal respirator set at a stroke volume of 2.5 cc and a rate of 40 breaths per min. Ventilatory pressure (cmH2 O) was measured with a Statham pressure transducer from a side arm off the tracheal cannula. […]
Plasma SRS-A was determined as follows: Arterial blood was drawn from the carotid artery of the guinea-pigs into sodium citrate (0.38%) containing indomethacin (10^-4 M). […]
SRS-A was bioassayed on the guinea-pig ileum incubated in Tyrode solution containing 10^-6 M atropine sulphate and 10^-6 M pyrilamine maleate and aerated with 95% O2 and 5% CO2. Changes in tension were measured isotonically with an Adaps rotary motion transducer and recorded on a Linear recorder. […]

[5] = system: P388 Leukemia; assay: activity vs P388 leukemia (T/C % survival time), Table 6; assay type: in vivo, mice; conditions: five treatments, >130 significant
Protocol: The following protocol was used:
CDF1 mice were injected ip with 10^6 cells The drug was administered in the first day after tumor inoculation and continued daily for five treatments. The mean survival time of the treated group compared to the non-treated control group equals T/C×100=T/C percent.

[6] = system: arachidonic acid induced ear edema; assay: arachidonic acid induced ear edema assay, Table 10; assay type: in vivo, Mice; conditions: Experiment 2, 2 mg total dose, topical
Protocol: The compounds of this invention because of their ability to scavenge free-radicals in vivo are capable of modulating inflammation as set forth in the following protocol: Mice received the test compound topically to each side of the right ear one hr prior to the inflammatory challenge, at which time they were challenged (except for the negative control) with 10 microliter of a 2 mg/20 microliter solution of arachidonic acid applied to each side of the right ear. One hour post-challenge, the animals were sacrificed, the right ears removed, and an 8 mm disc punched from each. These discs were then weighed. The following table gives the results of this experiment.

Structure (SMILES)	t/c % (mean survival time) ([1]; 25 mg/kg) [%]	t/c % (mean survival time) ([1]; 50 mg/kg)	t/c % (mean survival time) ([1]; 100 mg/kg)	t/c % (mean survival time) ([1]; 200 mg/kg)	t/c % (mean survival time) ([1]; 300 mg/kg) [%]	T/C % (median tumor weight, day 20) ([2]; 800 mg/kg ip, twice on day two and twice on day nine) [%]	activity at lower doses ([2]; doses lower than 800 mg/kg)	rate constant (tyrosine free radical scavenging) ([3]; pulse radiolysis)	times faster scavenger of tyrosine free radical than hydroxyurea ([3]; vs hydroxyurea) [times]	% Inhibition of SRS-A Biosynthesis [4] [%]	T/C % (mean survival time) ([5]; 12.5 mg/kg daily) [%]	T/C % (mean survival time) ([5]; 25 mg/kg daily) [%]	T/C % (mean survival time) ([5]; 50 mg/kg daily) [%]	T/C % (mean survival time) ([5]; 100 mg/kg daily, listed as ethyl gallamidate.HCl, hydrochloride)	T/C % (mean survival time) ([5]; 200 mg/kg daily, listed as ethyl gallamidate.HCl, hydrochloride)	T/C % (mean survival time) ([5]; 400 mg/kg daily, listed as ethyl gallamidate.HCl, hydrochloride)	Percent Inhibition vs. positive control [6] [%]	Mean Increase in Weight of Inflammed Ear (± S.E.) ([6]; positive control 19.0 ± 0.5, p = .000) [mg]
NC(=NO)c1ccc(O)c(O)c1 [3,4-dihydroxybenzamidoxime.HCl, 3,4-dihydroxybenzamidoximehydrochloride]	130	137% and 117% and 132% and 146%	128% and 132% and 141% and 133%	175% and 128% and 155% and 186%	113	87	ineffective	4.5×10^8 M^-1 S^-1	≥ 100	25								
CCOC(=N)c1cc(O)c(O)c(O)c1 [ethyl 3,4,5-trihydroxybenzamidate-HCl, Ethyl 3,4,5-trihydroxybenzamidate hydrochloride]										29	104	112	114	129% and 128%	139% and 123%	149% and 160%	35	12.3 ± 0.4
